What is called IC50 is the concentration that gives 50% inhibition.

These results are taken from PMC11952222, “Development and comparison of single FLT3-inhibitors to dual FLT3/TAF1-inhibitors as an anti-leukemic approach” (PLOS One, 2025).

Several values for one entry are separate records, joined by “and”; a condition that tells them apart may be missing. Equal entries are not always repeated. Where two headings read alike, the source gives them in different places.

One test concerns FLT3(ITD,F691L). Nature of the test: Eurofins/DiscoverX cell free kinase assay, percent control. It is filed as binding. As to conditions: for per_control_1000nM FLT3(ITD,F691L): 1000 nM compound; for per_control_10000nM FLT3(ITD,F691L): 10000 nM compound. As for the experimental part: (§1) The 3i-compounds underwent activity testing against a panel of 32 bromodomains using the Eurofins/DiscoverX bromoMAX assay, with specific focus on TAF1(2) bromodomain assessed by the KdELECT assay. In a similar manner, kinase activity was evaluated using a panel of 97 kinase proteins using the Eurofins/DiscoverX scanELECT and KdELECT assays, with specific focus on FLT3 protein. An 11-point 3-fold serial dilution of each test compound was prepared in 100% DMSO at 100x final test concentration and subsequently diluted to final concentration (DMSO 1%). […] Percent control was calculated using the following formula: ((test compound signal – positive control signal)/ (negative control signal – positive control signal)) × 100.
(§2) Fig 2 Results of 3i-compound series at concentrations of 1 µM and 10 µM in a cell free Eurofins/DiscoverX assay for kinase and bromodomain proteins. (A) Single-targeted compounds with tyrosine kinase activity but without bromodomain activity. (B) Dual-targeted compounds with both tyrosine kinase and bromodomain activity.

Another test has as its target T1, FLT3(D835V) (Homo sapiens, UniProt P36888, D835V).
T1 construct: purchased Eurofins/DiscoverX
T1 sequence (P36888 27-993 D835V): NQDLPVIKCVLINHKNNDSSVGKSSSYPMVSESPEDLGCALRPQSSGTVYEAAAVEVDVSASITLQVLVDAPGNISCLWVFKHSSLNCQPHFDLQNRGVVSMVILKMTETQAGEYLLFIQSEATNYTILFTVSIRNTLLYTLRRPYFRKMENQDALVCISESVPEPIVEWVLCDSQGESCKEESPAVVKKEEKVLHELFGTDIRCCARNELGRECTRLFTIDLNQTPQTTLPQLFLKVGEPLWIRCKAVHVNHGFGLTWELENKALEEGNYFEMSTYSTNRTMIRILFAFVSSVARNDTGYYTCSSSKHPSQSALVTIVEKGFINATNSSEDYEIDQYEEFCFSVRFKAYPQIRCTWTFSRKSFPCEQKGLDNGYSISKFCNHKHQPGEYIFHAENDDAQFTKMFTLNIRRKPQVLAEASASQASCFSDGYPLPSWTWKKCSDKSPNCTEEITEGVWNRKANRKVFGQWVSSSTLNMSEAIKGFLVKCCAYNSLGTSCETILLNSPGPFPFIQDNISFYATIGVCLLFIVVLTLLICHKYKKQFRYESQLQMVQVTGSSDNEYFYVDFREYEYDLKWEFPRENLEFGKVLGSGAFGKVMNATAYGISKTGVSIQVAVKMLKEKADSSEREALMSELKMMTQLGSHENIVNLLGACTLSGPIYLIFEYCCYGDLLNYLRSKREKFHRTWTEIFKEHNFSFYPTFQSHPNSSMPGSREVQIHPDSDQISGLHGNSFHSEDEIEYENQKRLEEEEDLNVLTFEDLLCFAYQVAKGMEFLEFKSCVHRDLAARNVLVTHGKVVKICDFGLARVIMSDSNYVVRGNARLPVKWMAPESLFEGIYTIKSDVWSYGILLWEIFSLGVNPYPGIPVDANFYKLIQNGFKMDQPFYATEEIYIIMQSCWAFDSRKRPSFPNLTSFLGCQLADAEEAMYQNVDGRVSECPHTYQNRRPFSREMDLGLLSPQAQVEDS
Described as above. Format: binding. Conditions: for per_control_1000nM FLT3(D835V): 1000 nM compound; for per_control_10000nM FLT3(D835V): 10000 nM compound. As for the experimental part: as §1, §2

Another test has as its target T2, KIT (Homo sapiens, UniProt P10721).
T2 construct: purchased Eurofins/DiscoverX
The test is described as above. It is filed as binding. Conditions: for per_control_1000nM KIT: 1000 nM compound; for per_control_10000nM KIT: 10000 nM compound. As for the experimental part: as §1, §2

In another test the target is T3, FLT3_autoinhibited (Homo sapiens, UniProt P36888).
T3 construct: purchased Eurofins/DiscoverX
T3 sequence (P36888 564-993 limits assumed): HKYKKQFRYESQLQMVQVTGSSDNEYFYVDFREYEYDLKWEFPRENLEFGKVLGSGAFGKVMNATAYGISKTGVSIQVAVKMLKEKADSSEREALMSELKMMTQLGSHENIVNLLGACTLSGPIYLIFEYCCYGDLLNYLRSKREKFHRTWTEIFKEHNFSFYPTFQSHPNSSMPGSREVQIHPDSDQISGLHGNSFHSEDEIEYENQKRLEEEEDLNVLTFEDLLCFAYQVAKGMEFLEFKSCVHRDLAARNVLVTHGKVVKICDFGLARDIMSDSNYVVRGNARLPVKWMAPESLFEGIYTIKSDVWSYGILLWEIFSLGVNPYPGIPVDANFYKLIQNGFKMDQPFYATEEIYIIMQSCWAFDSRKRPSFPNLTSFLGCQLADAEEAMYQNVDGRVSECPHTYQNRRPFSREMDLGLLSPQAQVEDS
Described as above. Conditions: for per_control_1000nM FLT3_autoinhibited: 1000 nM compound; for per_control_10000nM FLT3_autoinhibited: 10000 nM compound. Format: binding. Here is the method:
as §1, §2

The next test has as its system DU4475 cells. Nature of the test: Cell toxicity, CellTox Green, DU4475. Conditions: CellTox Green relative to DMSO. It is filed as cell-based. Here is the method: (§3) Drug sensitivity and resistance testing in MOLM13, DU4475, HDQP1, and IGROV1 cells was conducted at the Finnish Institute for Molecular Medicine (FIMM), University of Helsinki. In brief, the effects of compounds on cell viability and cell death were quantified with Cell-Titer Glo (Promega) and CellTox Green (Promega), respectively. Compounds or vehicle control were included in cell culture medium at described concentrations for 72h using an automated liquid dispenser in 384-well format. For KASUMI-1 experiments, cells were grown in 96-well plates and similarly incubated with compounds at indicated concentrations for 72h in RPMI + 10% FCS + Gentamicin, followed by lysis and quantification of cell viability with Cell-Titer Glo (Promega).
(§4) Raw values from viability and toxicity assays were normalized to DMSO and plotted to heat maps in R using pheatmap (RRID:SCR_016418). Dose-response curves were generated using the drc package in R [40]. In brief, nonlinear modelling was performed to calculate IC50 values for each compound where possible and resulting curves from drc and experimental values were plotted using ggplot2 (RRID:SCR_014601).

In a further test the target is T4, TAF1(2) bromodomain (Homo sapiens, UniProt P21675).
T4 construct: with specific focus on TAF1(2) bromodomain assessed by the KdELECT assay; purchased Eurofins/DiscoverX
T4 sequence (P21675 1519-1628 limits assumed): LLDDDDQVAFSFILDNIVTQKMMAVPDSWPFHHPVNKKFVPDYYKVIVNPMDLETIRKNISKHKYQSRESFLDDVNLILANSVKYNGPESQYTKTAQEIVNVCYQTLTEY
Kind of test: Eurofins/DiscoverX KdELECT, TAF1(2) bromodomain IC50. Format: binding. As to conditions: 11-point 3-fold dilution, top concentration 10,000 nM. As for the experimental part:
as §1

For another test, the target named is T5, TAF1(2) (Homo sapiens, UniProt P21675).
T5 construct: with specific focus on TAF1(2) bromodomain assessed by the KdELECT assay; purchased Eurofins/DiscoverX
T5 sequence (P21675 1519-1628 limits assumed): T4 sequence (P21675 1519-1628 limits assumed)
Nature of the test: Eurofins/DiscoverX cell free bromodomain assay, percent control. It is filed as binding. As to conditions: for per_control_1000nM TAF1(2): 1000 nM compound; for per_control_10000nM TAF1(2): 10000 nM compound. As for the experimental part:
as §1

The subject of a further test is KASUMI-1 cells. Kind of test: Cell viability, CellTiter Glo, KASUMI-1. Format: cell-based. As to conditions: compared to dual FLT3/TAF1(2) compounds 3i-1103, 3i-1246, 3i-1248. Here is the method: as §3, §4
(In ATP-based viability assays light output follows the ATP content of the culture.)

Where [1] appears, read: kdELECT, read-out: TAF1(2) IC50.

T2 sequence (P10721 26-976): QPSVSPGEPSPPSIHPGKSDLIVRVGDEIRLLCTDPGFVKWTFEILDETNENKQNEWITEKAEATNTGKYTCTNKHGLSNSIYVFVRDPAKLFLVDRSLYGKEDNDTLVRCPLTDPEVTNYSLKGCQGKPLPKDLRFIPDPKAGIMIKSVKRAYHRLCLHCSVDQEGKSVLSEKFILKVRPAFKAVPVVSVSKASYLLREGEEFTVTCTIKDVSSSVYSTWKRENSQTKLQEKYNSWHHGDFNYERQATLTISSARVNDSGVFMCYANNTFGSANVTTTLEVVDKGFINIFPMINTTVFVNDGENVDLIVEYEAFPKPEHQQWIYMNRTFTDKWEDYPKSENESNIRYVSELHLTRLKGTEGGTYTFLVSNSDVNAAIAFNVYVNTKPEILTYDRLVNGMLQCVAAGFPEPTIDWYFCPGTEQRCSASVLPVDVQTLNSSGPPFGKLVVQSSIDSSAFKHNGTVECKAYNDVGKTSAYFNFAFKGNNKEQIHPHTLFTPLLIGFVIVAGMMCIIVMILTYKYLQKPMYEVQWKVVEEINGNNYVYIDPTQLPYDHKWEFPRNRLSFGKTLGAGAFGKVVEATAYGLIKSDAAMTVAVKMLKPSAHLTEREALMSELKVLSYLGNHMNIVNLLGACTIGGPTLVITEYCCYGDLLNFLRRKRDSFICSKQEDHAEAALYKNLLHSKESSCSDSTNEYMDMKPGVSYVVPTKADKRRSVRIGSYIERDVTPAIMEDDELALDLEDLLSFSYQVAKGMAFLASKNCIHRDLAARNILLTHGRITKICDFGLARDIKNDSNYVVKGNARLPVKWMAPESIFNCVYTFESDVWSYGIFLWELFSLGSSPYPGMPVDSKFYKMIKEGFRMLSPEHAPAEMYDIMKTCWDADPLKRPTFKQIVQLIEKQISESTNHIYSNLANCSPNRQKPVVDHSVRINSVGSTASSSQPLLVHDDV

Regarding `COc1ccc(-c2cc(NC(=O)c3ccc(C(C)(C)C)cc3)[nH]n2)cc1` [Compound 3i-1103], in the test on FLT3(ITD,F691L), the “per_control_1000nM FLT3(ITD,F691L)” value came to 38 percent control and the “per_control_10000nM FLT3(ITD,F691L)” value is 9.4 percent control. Besides, at FLT3(D835V), the “per_control_1000nM FLT3(D835V)” value is listed as 0.9 percent control and the “per_control_10000nM FLT3(D835V)” value turned out to be 0 percent control. In addition, at KIT, the “per_control_1000nM KIT” value stood at 0 percent control and the “per_control_10000nM KIT” value is given as 0 percent control. For the same compound, at FLT3_autoinhibited, the “per_control_1000nM FLT3_autoinhibited” value was 1.8 percent control and the “per_control_10000nM FLT3_autoinhibited” value is reported as 0.4 percent control. For the same compound, the “CTX normalized_to_DMSO” value with DU4475 cells (DU4475, exp 1, 0.3 µM) is recorded as 1.007. In addition, the “CTX normalized_to_DMSO” value in the test on DU4475 cells (DU4475, exp 1, 1 µM) came out at 0.9954. For the same compound, in the test on DU4475 cells (DU4475, exp 1, 3 µM), the “CTX normalized_to_DMSO” value is given as 0.9628. Further, the “CTX normalized_to_DMSO” value with DU4475 cells (DU4475, exp 1, 10 µM) is 0.9392. For the same compound, the “CTX normalized_to_DMSO” value in the test on DU4475 cells (DU4475, exp 1, 30 µM) was 0.7319. Besides, the IC50 at TAF1(2) bromodomain (setting [1]) is 480 nM. Besides, at TAF1(2), the “per_control_1000nM TAF1(2)” value is given as 21 percent control and the “per_control_10000nM TAF1(2)” value stood at 2.6 percent control.
With `Cc1cc(-c2cc(NC(=O)c3ccc(C(C)(C)C)cc3)[nH]n2)ccn1` [Compound 3i-1246, 4-(tert-butyl)-N-(3-(2-methylpyridin-4-yl)-1H-pyrazol-5-yl)benzamide], in the test on FLT3(ITD,F691L), the “per_control_1000nM FLT3(ITD,F691L)” value is given as 3.3 percent control and the “per_control_10000nM FLT3(ITD,F691L)” value is 1.6 percent control. On FLT3(D835V), the “per_control_1000nM FLT3(D835V)” value is 0.5 percent control and the “per_control_10000nM FLT3(D835V)” value is 0.55 percent control. Also, on KIT, the “per_control_1000nM KIT” value is 0 percent control and the “per_control_10000nM KIT” value was determined as 0 percent control. On FLT3_autoinhibited, the “per_control_1000nM FLT3_autoinhibited” value amounted to 0 percent control and the “per_control_10000nM FLT3_autoinhibited” value is listed as 1 percent control. Besides, on TAF1(2) bromodomain (setting [1]), the half-maximal inhibitory concentration (IC50) was 280 nM and 260 nM. Also, on TAF1(2), the “per_control_1000nM TAF1(2)” value worked out at 4.1 percent control and the “per_control_10000nM TAF1(2)” value was 3.6 percent control.
As to `CC(C)(C)c1ccc(C(=O)Nc2cc(-c3ccccc3)n[nH]2)cc1` [Compound 3i-1247, 4-(tert-butyl)-N-(3-phenyl-1H-pyrazol-5-yl)benzamide], in the test on FLT3(ITD,F691L), the “per_control_1000nM FLT3(ITD,F691L)” value was determined as 9.7 percent control and the “per_control_10000nM FLT3(ITD,F691L)” value was 0.1 percent control. For the same compound, at FLT3(D835V), the “per_control_1000nM FLT3(D835V)” value worked out at 2.5 percent control and the “per_control_10000nM FLT3(D835V)” value worked out at 0 percent control. On KIT, the “per_control_1000nM KIT” value is reported as 0 percent control and the “per_control_10000nM KIT” value is recorded as 0 percent control. At FLT3_autoinhibited, the “per_control_1000nM FLT3_autoinhibited” value turned out to be 1.1 percent control and the “per_control_10000nM FLT3_autoinhibited” value amounted to 0 percent control. Further, the half-inhibitory concentration (IC50) on TAF1(2) bromodomain (TAF1(2) IC50, kdELECT) was greater than 10000 nM. For the same compound, on TAF1(2), the “per_control_1000nM TAF1(2)” value is 97 percent control and the “per_control_10000nM TAF1(2)” value amounted to 78 percent control. The “anti-proliferative activity in KASUMI-1 cells” value in the test on KASUMI-1 cells was “superior anti-proliferative activity”.
`Cn1cc(-c2cc(NC(=O)c3ccc(C(C)(C)C)cc3)n[nH]2)ccc1=O` [Compound 3i-1248, 4-(tert-butyl)-N-(5-(1-methyl-6-oxo-1,6-dihydropyridin-3-yl)-1H-pyrazol-3-yl)benzamide]: in the test with FLT3(ITD,F691L), the “per_control_1000nM FLT3(ITD,F691L)” value was determined as 29 percent control and the “per_control_10000nM FLT3(ITD,F691L)” value stood at 1.9 percent control. For the same compound, at FLT3(D835V), the “per_control_1000nM FLT3(D835V)” value was determined as 1.3 percent control and the “per_control_10000nM FLT3(D835V)” value was found to be 0.7 percent control. For the same compound, on KIT, the “per_control_1000nM KIT” value stood at 8.2 percent control and the “per_control_10000nM KIT” value was 0.1 percent control. Also, at FLT3_autoinhibited, the “per_control_1000nM FLT3_autoinhibited” value came out at 63 percent control and the “per_control_10000nM FLT3_autoinhibited” value is recorded as 12 percent control. The half-inhibitory concentration (IC50) on TAF1(2) bromodomain (setting [1]) was 5.1 nM. On TAF1(2), the “per_control_1000nM TAF1(2)” value is reported as 0.3 percent control and the “per_control_10000nM TAF1(2)” value is given as 0.05 percent control.
